# Experimental data from publication PMC12833730, “Discovery of a First‐in‐Class Covalent Allosteric SHP1 Inhibitor with Immunotherapeutic Activity” (Angewandte Chemie (International Ed. in English), 2025).
# Key:
# [1] = biological target: T1, SHP1 (Homo sapiens, UniProt P29350); test: IC50 after 10-min/60-min preincubation, DiFMUP phosphatase assay; type: biochemical; conditions: negative control analogs of M029
# T1 construct: SHP1, residues 245-543; made in house; host or cells: E. coli BL21(DE3)
# Source text: The PTP‐catalyzed reaction involves a nucleophilic attack by the conserved active site Cys side chain on the phosphorus atom of phosphotyrosine in the substrate.^[ [53] ^] As such, the PTPs could serve as prime targets for covalent inhibition. Previously described activity‐based probes or covalent ligands for the PTPs are either phosphotyrosine isosteres or thiol‐reactive compounds that covalently modify the active site residues (including the catalytic Cys) and lack sufficient isozyme specificity.^[ [54], [55], [56], [57], [58], [59], [60], [61] ^] Inspired by the resurgence in covalent inhibitors for difficult drug targets, we set out to discover covalent SHP1 inhibitors by screening for electrophilic fragments that bind covalently to SHP1. This strategy is increasingly utilized to identify novel ligands for a target of interest.^[ [47], [62], [63] ^] We assembled a library of 4600 Cys reactive molecules from the Enamine covalent fragment collections containing 49.0% acrylamide, 38.1% chloroacetamide, 5.15% chloromethylketone, 5.20% activated nitrile, 2.10% epoxide, and 0.53% disulfide (Figure S1A). We carried out a high‐throughput biochemical fragment screening of this curated commercially available library against the SHP1 catalytic domain (residues 245–543). Each fragment (500 µM) was incubated with SHP1 (500 nM) for 30 min at room temperature before diluting the reaction 5.5‐fold with 24.45 mM para‐nitrophenyl phosphate (pNPP) to measure the residual PTP activity. This concentration of substrate was chosen to out‐compete any remaining fragment to reduce the inactivation of SHP1 during the enzymatic hydrolysis of pNPP. After a 2‐min incubation at 25 °C, the reaction was quenched by the addition of 5N NaOH, and the production of para‐nitrophenol was determined by absorbance at 405 nm. This assay format afforded a Z’‐factor of 0.70 (Figure S1B), indicating a robust screen to reliably identify hit molecules. To enhance the probability of discovering covalent ligands with inherent preference for SHP1, we also counter‐screened the same library against SHP2, the closest homolog of SHP1, and two other widely studied PTPs, PTP1B and PTPN22 (also called LYP). […] Among these, 31 were repurchased based on their observed preference for SHP1 and structural diversity, 11 of which were confirmed as potential covalent inhibitors for SHP1 based on the time dependency of their half‐maximal inhibition concentration (IC50) values determined with a 10‐min and 60‐min preincubation time, respectively (Table 1).
# To further confirm the time-dependent inhibition and determine the IC50 of acquired hits, repurchased compounds from Enamine were serially diluted in a 96-well plate, followed by the addition of proteins at 200 nM. After 10-minute and 60-minute preincubation, 2 µL of the mixture was transferred into 100 µM 6,8-Difluoro-4-Methylumbelliferyl Phosphate (DiFMUP, Invitrogen, cat# D6567) at a final volume of 200 µL. The reaction was allowed to proceed for 5 minutes and quenched by the addition of 40 µl of a 160 µM solution of bpV(Phen) (Sigma-Aldrich, cat# SML0889). The fluorescence signal was measured using a CLARIOstar Plus Microplate Spectrophotometer (BMG Labtech) using excitation and emission wavelengths of 340 nm and 450 nm, respectively. Data were fitted using Prism GraphPad 10.1.1.
# [2] = test system: LCK, PLCγ and ERK1/2 phosphorylation in Jurkat T cells; test: TCR-LCK signaling immunoblot; type: cell-based; conditions: 20 µM
# Description: (§1) Supernatants from lysed cells were reduced, treated with iodoacetamide to cap thiol residues, and digested by trypsin for bottom‐up proteomics analysis. […] LCK is the direct substrate of SHP1 and ERK1/2, and PLCγ is the downstream effector protein of LCK‐mediated TCR signaling. […] Statistical analyses were performed with Graphpad Prism software 10.4.2 through the one‐way ANOVA test using Turkey post‐hoc comparison. ****p < 0.0001 was considered significant.
# (§2) To further confirm M029 cellular target engagement, we investigated the effect of M029 on T cell function. SHP1 plays a negative role in T cells, and deletion of SHP1 in T cells lowers the activation threshold and enhances antitumor immunity.^[ [30], [31], [32], [33] ^] Mechanistically, SHP1 attenuates T cell receptor (TCR) signaling via dephosphorylation of the lymphocyte‐specific protein tyrosine kinase LCK.^[ [31], [84], [85], [86] ^] T cell activation leads to increased expression and secretion of interleukin 2 (IL‐2)^[ [87] ^] while the removal of SHP1 in T cells enhances IL‐2 production, cell proliferation, and cytolysis capacity.^[ [30], [32] ^] Accordingly, we sought to assess the impact of targeting SHP1 with M029 on TCR‐LCK signaling and T cell activation. […] M029 also dose‐dependently promoted IL‐2 production (Figure 4c). […] These findings corroborate that the observed increase in LCK phosphorylation and its downstream signaling indeed resulted from SHP1 inhibition by M029.
# Immunoblotting: Cultured cells were lysed with ice-cold lysis buffer (50 mM Tris, pH 8.0, 150 mM NaCl, 10% Glycerol, 1% Triton-X-100) supplied with phosphatase inhibitor (Bimake) and protease inhibitor mixture (Roche Applied Science). Equal amounts of protein were resolved by SDS-PAGE, transferred to a nitrocellulose membrane, and subjected to immunoblotting. […]
# [3] = test system: IL-2 in Jurkat T cells; test: IL-2 mRNA / production; type: cell-based; conditions: 20 µM
# Description: as §1, §2
# [4] = biological target: T1, SHP1; test: Vanadate protection jump-dilution experiment; type: biochemical; conditions: 500 µM sodium orthovanadate, 30 min
# Description: To further understand the mode of M029 action and ascertain whether M029 binds the SHP1 active site or a yet undefined novel site in SHP1, we performed a vanadate (VO4 ^3−) protection experiment. Vanadate is a reversible and competitive PTP inhibitor,^[ [76], [77] ^] and thus excessive vanadate would be expected to fully occupy the PTP active site and prevent covalent modifications of residues within the active site pocket. In this assay, SHP1 was co‐incubated with 30 µM M029 and 500 µM sodium orthovanadate or vehicle control for 30 min. The SHP1‐inhibitor complex was then rapidly diluted 100‐fold into a buffered solution containing 10 mM pNPP, and immediately, the absorbance at 405 nm was monitored over time to determine the remaining phosphatase activity.
# T1 sequence (P29350 245-543): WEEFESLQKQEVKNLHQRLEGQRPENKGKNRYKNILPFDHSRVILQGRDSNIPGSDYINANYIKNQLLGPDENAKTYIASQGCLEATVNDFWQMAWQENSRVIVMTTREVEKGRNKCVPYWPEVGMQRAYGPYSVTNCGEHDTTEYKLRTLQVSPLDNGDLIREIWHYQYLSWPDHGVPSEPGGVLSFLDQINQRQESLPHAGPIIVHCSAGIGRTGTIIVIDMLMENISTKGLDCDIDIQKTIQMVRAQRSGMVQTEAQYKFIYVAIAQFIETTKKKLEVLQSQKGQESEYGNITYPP
SHP1 inhibitory activity (in words) [1],SHP1 activity after 100-fold dilution of vanadate complex [4],SMILES,"phosphorylation levels of LCK, PLCγ, and ERK1/2 [2]",IL-2 secretion [3]
loses the ability to inactivate SHP1,–,"CC(=O)Nc1ccc(S(=O)(=O)Nc2sccc2C#N)cc1 [M054, N-(4-(N-(3-cyanothiophen-2-yl)sulfamoyl)phenyl)acetamide]",neither impacted,neither impacted
inactive against SHP1,–,"O=C(CCl)Nc1ccccc1 [PhClAc, reference compound]",neither impacted,neither impacted
–,fully recovered activity,"[Na+].[Na+].[Na+].[O]=[V]([O-])([O-])[O-] [sodium orthovanadate, reference compound]",–,–
